Results taken from patent US20190351019A1, “STEROID ADMINISTRATION AND IMMUNOTHERAPY” (Intrexon Corporation, priority 2016, published 2019).

Experiment: Infusion of CAR-T cells followed by prednisone in a B-ALL patient: GVHD course and blood counts (case report)
Type: in vivo, human
Conditions: about 1 mg/kg starting day 14; on day 18 (or Day 48 since administration of CAR-T cells); dose then reduced to about 0.5 mg/kg
Experimental: A person was diagnosed with B-cell acute lymphoblastic leukemia (B-ALL). […] Multiple salvage therapies were given. POMP maintenance therapy was subsequently started. The patient further developed graft-versus-host disease GVHD and was treated with prednisone and tacrolimus. Additional radiation therapy (XRT), immunotherapy, hyperCAVD and O-EPOCH were further administered to the patient. Further, lymphodepletion was induced in the patient with cyclophosphamide at 500 mg/m^2 and fludarabine at 30 mg/m^2 for 3 days. Following lymphodepletion, 10^6 CAR-T cells/kg were infused into the patient on day 0. […] About 1 mg/kg of prednisone was administered starting day 14. […] White blood cell count (WBC) was 2.7 and absolute lymphocyte count (ALC) was 200.

Compound: C[C@]12C=CC(=O)C=C1CC[C@@H]1[C@@H]2C(=O)C[C@@]2(C)[C@H]1CC[C@]2(O)C(=O)CO [prednisone]
- outcome of GVHD under prednisone: GVHD was resolved
